Test results: the supplement of paper PMC11208160

Assay: recombinant barcode read abundance after kanamycin selection (control-corrected) (log10(CPM+1)); higher = more efficient recombination; sequences stand for … in AGTGCAGAGAAAATCGGCCAGTTTTCTCTGCCTGCAGTCCGCATGCCGT…AGATTTATGCAGCGGACTGCCTTTCTCCCAAAGTGATAAACCGGACAGTATCATGGACCGGTTTTCCCGGTAATCCGTATTTGCAAGGTTGGTTTCACT; site = the 11-nt target
Method in brief: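 A vector carrying a T7-inducible recombinase and the last 73 bp of the bridge RNA received, by Gibson cloning, oligos encoding a promoter, target, barcode and the first 104 bridge RNA bases under J23119. The pooled constructs entered E. coli together with a donor plasmid by electroporation. Selection used chloramphenicol/ampicillin/kanamycin with 0.1 mM IPTG, with chloramphenicol/ampicillin LB agar as the control, each in two replicates. Recombination efficiency is the averaged, control-corrected counts-per-million of barcodes at recombinant junctions, reported as log10(CPM+1).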
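Also: IS621 recombinase and bridge RNA in Escherichia coli cells.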

“GACGATCCTTGGGTTCTAACCTGTTGCCT (site GCCGATCCTAG)” and “TCACATGCTTGGGTTCTAACCTGTTGCCT (site TCACGTGCTAG)” are within 0.2 log units of each other in “recombinant barcode read abundance (log10)” value: 0.0719 for the first, 0.179 for the second.

“GGGACAACTTGGGTTCTAACCTGTTGCCT (site GGGGTAACTAG)” and “CTCGGAACTTGGGTTCTAACCTGTTGCAT (site CTGGGAACTCT)” are within 0.2 log units of each other in “recombinant barcode read abundance (log10)” value: 0.0828 for the first, 0.00945 for the second.

Compared with “CCTAACCCTTGGGTTCTAACCTGTTGCGT (site CCTAAGCCTAC)”, “TAGGCTACTTGGGTTCTAACCTGTTGCAC (site TAGGCTACTGT)” is higher in “recombinant barcode read abundance (log10)” value: 0.0306 for the first, 1.19 for the second.

Compared with “AGCCACACTTGGGTTCTAACCTGTTGCCT (site AGCCACACTAG)”, “ACTTGCCCTTGGGTTCTAACCTGTTGCCT (site AGTTGCCCTAG)” is lower in “recombinant barcode read abundance (log10)” value: 0.933 for the first, 0.00674 for the second.

Going from “GGAGTGACTTGGGTTCTAACCTGTTGCTT (site GGAGTGACTAA)” to “GAGGACTCTTGGGTTCTAACCTGTTGCCT (site GAGGACTCTTG)”, the “recombinant barcode read abundance (log10)” value falls from 0.979 to 0.0974.

First: AGCTTTGCTTGGGTTCTAACCTGTTGCCT (site AGCATTGCTAG)
Second: CTATTCCCTTGGGTTCTAACCTGTTGCCT (site CTATTCCCTAG)
The “recombinant barcode read abundance (log10)” value of the first is lower: 0.015 for the first, 1.52 for the second.

Compared with “TGCAAGTCTTGGGTTCTAACCTGTTGCCT (site TGCAAGTCTAG)”, “GAAAGTCCTTGGGTTCTAACCTGTTGCCT (site GAAAATCCTAG)” is lower in “recombinant barcode read abundance (log10)” value: 0.361 for the first, 0.0602 for the second.

Going from “GAGTGCTCTTGGGTTCTAACCTGTTGCAG (site GAGTGCTCTCT)” to “AATTGGCCTTGGGTTCTAACCTGTTGCGT (site AATAGGCCTAC)”, the “recombinant barcode read abundance (log10)” value falls from 1.26 to 0.425.

Going from “TAGCCATCTTGGGTTCTAACCTGTTGCTC (site TAGACATCTGA)” to “TCTGATTCTTGGGTTCTAACCTGTTGCGT (site TCTGATTCTAC)”, the “recombinant barcode read abundance (log10)” value rises from 0.0329 to 1.4.

“GACGAAGCTTGGGTTCTAACCTGTTGCCT (site GACGAAGCTAG)” and “TGCTTACCTTGGGTTCTAACCTGTTGCCT (site TGCTTACCTAG)” are within 0.2 log units of each other in “recombinant barcode read abundance (log10)” value: 0.348 for the first, 0.282 for the second.

“AGGTGCTCTTGGGTTCTAACCTGTTGCCT (site AAGTGCTCTAG)” and “TCCAGGGCTTGGGTTCTAACCTGTTGCCT (site TCCTGGCCTAG)” are within 0.2 log units of each other in “recombinant barcode read abundance (log10)” value: 0.0629 for the first, 0.0786 for the second.

Compared with “CCTTGTTCTTGGGTTCTAACCTGTTGCTA (site CCTTGTTCTTA)”, “TAGGATACTTGGGTTCTAACCTGTTGCGT (site TAGGATACTAC)” is higher in “recombinant barcode read abundance (log10)” value: 0.113 for the first, 3.02 for the second.

“TTGCATTCTTGGGTTCTAACCTGTTGCTG (site TTGCATTCTCA)” and “GACCAGCCTTGGGTTCTAACCTGTTGCTT (site GACCAGCCTAC)” are within 0.2 log units of each other in “recombinant barcode read abundance (log10)” value: 0.962 for the first, 0.994 for the second.

“TCTTCCACTTGGGTTCTAACCTGTTGCCT (site GCTTCCACTAG)” and “TAACACTCTTGGGTTCTAACCTGTTGCCT (site TCACAGTCTAG)” are within 0.2 log units of each other in “recombinant barcode read abundance (log10)” value: 0.0327 for the first, 0.19 for the second.

“CCACGGTCTTGGGTTCTAACCTGTTGCCT (site CCACAGTCTAG)” and “CGCTAGTCTTGGGTTCTAACCTGTTGCCT (site CGCTTGTCTAG)” are within 0.2 log units of each other in “recombinant barcode read abundance (log10)” value: 0.161 for the first, 0.0462 for the second.

“CGGAAATCTTGGGTTCTAACCTGTTGCCT (site CGGAAATCTAG)” and “TGGTGTCCTTGGGTTCTAACCTGTTGCCT (site TGGGGTCCTAG)” are within 0.2 log units of each other in “recombinant barcode read abundance (log10)” value: 0.127 for the first, 0.158 for the second.

First: CTTTGAGCTTGGGTTCTAACCTGTTGCAT (site CTTTGAGCTAT)
Second: TTACCTACTTGGGTTCTAACCTGTTGCCT (site TTACCAACTAG)
The “recombinant barcode read abundance (log10)” value of the first is higher: 0.632 for the first, 0.237 for the second.

Compared with “GGGTCGCCTTGGGTTCTAACCTGTTGCTT (site GGGTCGCCTAA)”, “CAAGATTCTTGGGTTCTAACCTGTTGCCT (site CCAGATTCTAG)” is higher in “recombinant barcode read abundance (log10)” value: 0.128 for the first, 0.71 for the second.

Going from “CCGTGCCCTTGGGTTCTAACCTGTTGCGT (site TCGTGCCCTAC)” to “GACGGTCCTTGGGTTCTAACCTGTTGCGG (site GACGGTCCTCC)”, the “recombinant barcode read abundance (log10)” value rises from 0.0224 to 2.15.

Compared with “TGTACGACTTGGGTTCTAACCTGTTGCGG (site GAGTGTTCTAA)”, “CTTGAGACTTGGGTTCTAACCTGTTGCCT (site CTTCAGGCTAG)” is higher in “recombinant barcode read abundance (log10)” value: 0.0347 for the first, 0.256 for the second.

Compared with “CAGTACGCTTGGGTTCTAACCTGTTGCCT (site CAGCAAGCTAG)”, “AGGTCCGCTTGGGTTCTAACCTGTTGCTA (site CACCAGCCTAT)” is lower in “recombinant barcode read abundance (log10)” value: 0.31 for the first, 0.026 for the second.

Compared with “TTGGTTCCTTGGGTTCTAACCTGTTGCCT (site TTGGTGCCTAG)”, “CCTACATCTTGGGTTCTAACCTGTTGCCT (site CCTACAACTAG)” is lower in “recombinant barcode read abundance (log10)” value: 0.43 for the first, 0.124 for the second.

Compared with “ACGGCTCCTTGGGTTCTAACCTGTTGCTG (site ACGTCTCCTCA)”, “GACCAGCCTTGGGTTCTAACCTGTTGCAT (site GACCAGCCTAT)” is higher in “recombinant barcode read abundance (log10)” value: 0.123 for the first, 1.82 for the second.

Compared with “TACGACGCTTGGGTTCTAACCTGTTGCCT (site TACGACGCTAG)”, “GCCCGTGCTTGGGTTCTAACCTGTTGCCT (site GCCCGTGCTAG)” is higher in “recombinant barcode read abundance (log10)” value: 0.756 for the first, 1.31 for the second.

First: CCGGATTCTTGGGTTCTAACCTGTTGCCT (site CCGGTTGCTAG)
Second: ACGCAGTCTTGGGTTCTAACCTGTTGCCT (site ACGCACTCTAG)
The “recombinant barcode read abundance (log10)” value of the first is higher: 0.369 for the first, 0.0573 for the second.

“CTTTAAGCTTGGGTTCTAACCTGTTGCTA (site ACCGTTCCTAG)” and “ACTCTAGCTTGGGTTCTAACCTGTTGCTC (site GCTCTAGCTTA)” are within 0.2 log units of each other in “recombinant barcode read abundance (log10)” value: 0.0964 for the first, 0.265 for the second.

Going from “AACGGAGCTTGGGTTCTAACCTGTTGCGG (site TGCGGAGCTCC)” to “TAGCATGCTTGGGTTCTAACCTGTTGCAT (site TAGCATGCTGT)”, the “recombinant barcode read abundance (log10)” value falls from 0.699 to 0.228.

“ATCCCACCTTGGGTTCTAACCTGTTGCGG (site ATACTACCTCC)” and “TCGGATACTTGGGTTCTAACCTGTTGCCT (site TCGGATACTAA)” are within 0.2 log units of each other in “recombinant barcode read abundance (log10)” value: 0.0321 for the first, 0.119 for the second.

“AGTCTCGCTTGGGTTCTAACCTGTTGCGG (site AGTATCGCTCC)” and “GATAGTCCTTGGGTTCTAACCTGTTGCCT (site GATAGTGCTAG)” are within 0.2 log units of each other in “recombinant barcode read abundance (log10)” value: 0.0167 for the first, 0.161 for the second.

“TAGGATACTTGGGTTCTAACCTGTTGCAG (site TAGGATACTGT)” and “GACCAGCCTTGGGTTCTAACCTGTTGCGT (site GACCAGCCTAG)” are within 0.2 log units of each other in “recombinant barcode read abundance (log10)” value: 0.106 for the first, 0.266 for the second.

Going from “CCGATTCCTTGGGTTCTAACCTGTTGCCT (site CCGAGTCCTAG)” to “TGGCCCTCTTGGGTTCTAACCTGTTGCTT (site TGGCCCTCTGA)”, the “recombinant barcode read abundance (log10)” value rises from 0.0319 to 0.52.

Going from “ACTAGTCCTTGGGTTCTAACCTGTTGCGT (site ACTAGTCCTAT)” to “CCAGGAGCTTGGGTTCTAACCTGTTGCCT (site CCAGAAGCTAG)”, the “recombinant barcode read abundance (log10)” value falls from 0.894 to 0.338.

First: CATCCGGCTTGGGTTCTAACCTGTTGCCT (site CATCCGCCTAG)
Second: ACCCAGTCTTGGGTTCTAACCTGTTGCCA (site ACCCAGTCTTG)
The “recombinant barcode read abundance (log10)” value of the first is lower: 0.0278 for the first, 0.961 for the second.

First: CAGGTCCCTTGGGTTCTAACCTGTTGCCG (site CAGGTCCCTCG)
Second: CCAGTAGCTTGGGTTCTAACCTGTTGCCT (site CCAGTAGCTAG)
The “recombinant barcode read abundance (log10)” value of the first is higher: 2.74 for the first, 0.52 for the second.

“GGCGATCCTTGGGTTCTAACCTGTTGCCT (site GACGATCCTAG)” and “TTACGAGCTTGGGTTCTAACCTGTTGCCT (site TCACTAGCTAG)” are within 0.2 log units of each other in “recombinant barcode read abundance (log10)” value: 0.151 for the first, 0.131 for the second.

Going from “CCTCTGGCTTGGGTTCTAACCTGTTGCCT (site CCTCTGGCTAG)” to “ACCTCAACTTGGGTTCTAACCTGTTGCCT (site ACTTCAACTAG)”, the “recombinant barcode read abundance (log10)” value falls from 0.514 to 0.215.

Compared with “CAAGTTCCTTGGGTTCTAACCTGTTGCCT (site CAAGTTCCTAG)”, “TGTCTCCCTTGGGTTCTAACCTGTTGCTT (site TGTCTCCCTAA)” is lower in “recombinant barcode read abundance (log10)” value: 1.03 for the first, 0.777 for the second.

Going from “CATTTCCCTTGGGTTCTAACCTGTTGCTT (site CATTTCCCTAA)” to “AAGGGCGCTTGGGTTCTAACCTGTTGCCT (site AAGGACGCTAG)”, the “recombinant barcode read abundance (log10)” value rises from 0.122 to 0.618.

“GGACGGGCTTGGGTTCTAACCTGTTGCAG (site GAACGGGCTCC)” and “CAGTATCCTTGGGTTCTAACCTGTTGCCT (site CACTATCCTAG)” are within 0.2 log units of each other in “recombinant barcode read abundance (log10)” value: 0.0984 for the first, 0.0764 for the second.

Going from “TGGAGCCCTTGGGTTCTAACCTGTTGCAG (site TGGAGCCCTCT)” to “TCGGATACTTGGGTTCTAACCTGTTGCAT (site TCGGATACTAC)”, the “recombinant barcode read abundance (log10)” value falls from 0.484 to 0.0629.

First: GCTCAACCTTGGGTTCTAACCTGTTGCCT (site GTTCAACCTAG)
Second: ACCAGGACTTGGGTTCTAACCTGTTGCCG (site ACCAGGACTCG)
The “recombinant barcode read abundance (log10)” value of the first is lower: 0.126 for the first, 1.94 for the second.

First: TAGCCTACTTGGGTTCTAACCTGTTGCGG (site TAGCCTACTAC)
Second: AGCAGGTCTTGGGTTCTAACCTGTTGCCT (site ACCAGGTCTAG)
The “recombinant barcode read abundance (log10)” value of the first is lower: 0.0228 for the first, 0.234 for the second.

“AGCAGTCCTTGGGTTCTAACCTGTTGCTG (site TCCAGTCCTCA)” and “GCCGCGCCTTGGGTTCTAACCTGTTGCAG (site GCCTCGCCTCT)” are within 0.2 log units of each other in “recombinant barcode read abundance (log10)” value: 0.0256 for the first, 0.13 for the second.
